Assay results published in US20210059977A1, “COMBINATION THERAPIES FOR THE TREATMENT OF AMYOTROPHIC LATERAL SCLEROSIS AND RELATED DISORDERS” (The General Hospital Corporation, priority 2018, published 2021).

What was measured:
[1] = tested on: Iba1-positive cell area in lumbar spinal cord; assay: Iba1 immunohistochemical analysis (microgliosis); assay type: in vivo, mice; conditions: TgSOD1-Cromolyn vs TgSOD1-Vehicle
Protocol: Frozen spinal cord sections were fixed in 4% PFA/PBS for 72 hours and dehydrated with 30% sucrose in PBS. Sections were washed three times (5 minutes each) with PBS and incubated with 3% H2O2 in PBS for 15 minutes to quench endogenous peroxidases. Sections were subsequently washed three times with PBS and blocked using 5% (v/v) normal goat serum (Vector Laboratories), 0.3% Triton X-100 in PBS. Primary antibody against Iba1 (rabbit polyclonal, 1:400, Wako, #019-19741) was diluted in a buffer containing 2.5% (v/v) normal goat serum, 0.3% Triton X-100 and incubated overnight at 4° C. On the following day, samples were washed three times (10 minutes each) with PBS. The primary antibody was detected using a biotinylated secondary antibody (1:200) and VECTASTAIN Elite ABC HRP kit (Vector Laboratories), and developed with DAB (Vector Laboratories), following the provider's instructions. Sections were dehydrated in a series of graded ethanol, cleared in xylene, and cover-slipped with Cytoseal-XYL xylene-based mounting medium (Thermo Fisher Scientific). Sections were imaged using a light microscope (TE360 Eclipse; Nikon, Japan) at 10× magnification. The Iba1-positive cell area (area occupied by Iba1-positive cells divided by the total area) was quantified for each spinal cord section using ImageJ software (Voxel counter plugin, NIH, USA). Two to three sections were analyzed per mouse. […]

beta-amyloid peptides = beta-amyloid peptides (Homo sapiens, UniProt P05067); conditions: cited from earlier work
SOD1^G93A mouse model [2] = assay: Gait analysis (stride length and width); assay type: in vivo, mice; conditions: 6.3 mg/kg i.p.
Protocol: Gait Analysis Manual gait analysis was performed using a limb painting procedure similar to previous studies. Briefly, mice were first trained to traverse a horizontal corridor leading directly into their home cage by gentle nudges in the appropriate direction. On test days the bottoms of their hindlimbs were painted, by brushing with non-toxic food dye (Fisher Scientific), and the mice were allowed to walk the path to their home cage on a piece of paper. Three trials were performed at each experimental time point (P70, P90, P110, P130, P150). Stride length and width was determined by measuring the distance between the same points, on the ball mount region of the footprint, in two consecutive footprints and calculated from 2-3 hindpaw strides. Mean data from 4-6 strides across three trials was calculated.
(§1) 149 male and female age- and litter-matched transgenic (Tg) SOD1^G93A and wild-type (Wt) SOD1^G93A mice were used with the following breakdown: Females (19 WtSOD1-Vehicle, 17 WtSOD1-Cromolyn, 19 TgSOD1-Vehicle, and 17 TgSOD1-Cromolyn) and Males (18 WtSOD1-Vehicle, 21 WtSOD1-Cromolyn, 21 TgSOD1-Vehicle, 17 TgSOD1-Cromolyn).

[3] = tested on: lumbar spinal cord motor neurons; assay: Motor neuron quantification (H&E); assay type: in vivo, mice; conditions: TgSOD1-Cromolyn vs TgSOD1-Vehicle; p=0.0033
Protocol: Longitudinal sections (10 μm) of the lumbar spinal cord were cut from fresh frozen tissue. Hematoxylin and eosin (H&E) staining was performed on the tissue sections as previously described. Within the region containing the ventral horn, all motor neurons are counted for three individual sections per animal (each separated by […]) to cover the areas of highest motor neuron density within the ventral horn. All counting was performed by an individual blinded to the genotypes. Images were acquired using a Zeiss microscope 20× objective (0.8 NA) and processed with Metamorph image analysis software (Molecular Devices).
as §1

[4] = tested on: pro-inflammatory cytokines and chemokines in spinal cord; assay: Meso Scale Discovery multi-spot cytokine assay, spinal cord; assay type: in vivo, mice; conditions: TgSOD1-Cromolyn vs TgSOD1-Vehicle; p=0.0273
Protocol: Spinal cord frozen tissue was homogenized in ice-cold RIPA buffer (Thermo Fisher Scientific, #8990) supplemented with protease inhibitor cocktail (Thermo Fisher Scientific, #78430). Samples were centrifuged at 45,000 g for 30 minutes at 4° C. using an Optima TL ultracentrifuge and a TLA 120.2 rotor (Beckman Coulter). Expression levels of 10 pro-inflammatory cytokines and chemokines were assessed in the supernatants derived from spinal cord tissue or in the plasma, using an electrochemiluminescence-based multi-array method and MESO Quickplex SQ 120 system (MSD, Rockville, Md., USA). The 96-well V-PLEX Proinflammatory Mouse 1 Kit (Meso Scale Discovery, #K15048D) was used to measure simultaneously IFN-γ, IL-1β, IL-2, IL-4, IL-5, IL-6, CXCL1/KC/GRO, IL-10, IL-12, p70, and TNFα, following the manufacturer's instructions. Briefly, samples were diluted in the calibrator and added to the plate coated with an array of cytokine capture antibodies. […] The plate was washed with the wash buffer and the 2× Read Buffer T was added. The signal was immediately measured on a MESO QuickPlex SQ 120 instrument and was analyzed using the DISCOVERY WORKBENCH 4.0 software (Meso Scale Diagnostics, LLC., Rockville, Md., USA). Protein concentrations in the supernatants or the plasma samples were measured using the Pierce BCA protein assay kit (Thermo Scientific). […]

SOD1^G93A mouse model [5] = assay: Paw Grip Endurance Test (PaGE); assay type: in vivo, mice; conditions: TgSOD1-Cromolyn vs TgSOD1-Vehicle
Protocol: The PaGE test was performed as previously described. Briefly, mice were placed on the wire lid of a conventional housing cage that was inverted and held at ˜45 cm above an open cage bottom. […] The largest value from three individual trials was used for analysis.
as §1

beta-amyloid peptides, sequence (P05067 672-713 limits assumed): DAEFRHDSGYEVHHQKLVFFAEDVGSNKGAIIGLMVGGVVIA

In the case of `O=C(O)c1cc(=O)c2c(OCC(O)COc3cccc4oc(C(=O)O)cc(=O)c34)cccc2o1` [cromolyn, cromolyn sodium], the “percentage of Iba1-positive cell area in the lumbar spinal cord” value [1] is listed as “no significant change”, the “binding to beta-amyloid peptides and polymerization” value (beta-amyloid peptides) is listed as “inhibiting their polymerization to higher order aggregates” and the stride length (SOD1^G93A mouse model [2]; TgSOD1 mice) is listed as “no effect on stride length”. For the same compound, the stride width (SOD1^G93A mouse model [2]; all groups, two-way ANOVA) was “no effect of treatment”, the “motor neuron survival (lumbar spinal cord motor neuron counts)” value [3] was “significantly increased” and the “CXCL1 levels in spinal cord” value [4] was “significant decrease”. For the same compound, the “TNFα levels in spinal cord” value [4] was “significant decrease”, the PaGE performance (SOD1^G93A mouse model [5]; 6.3 mg/kg i.p., all mice, P120 and P140) was “significant improvement in PaGE performance” and the PaGE performance (SOD1^G93A mouse model [5]; female mice, P100) was “greater deficits in PaGE performance”. For the same compound, the PaGE performance (SOD1^G93A mouse model [5]; female mice, P140) was “significant improvement” and the PaGE performance (SOD1^G93A mouse model [5]; male mice, P120) was “significant improvement in PaGE”.
